Assay [1] has as its system Phospho-Myosin Light Chain2 (Ser19). The assay is described as follows: Cell activity test: MLC2 (Ser19) phosphorylation in A7R5 cells (Western blot). The note with it: starved 20 hours, compound treatment 60 minutes, MLC2 (Ser19) phosphorylation corrected with GAPDH, read-out: cell activities (IC50). The class given is cell-based. The method, then:
Example 43: Cell Activity Test
1) The A7R5 cells in the logarithmic growth phase were digested, 2E5 cells per well were inoculated in a 6-well plate and incubated overnight at 37° C. with 5% CO2, and the cell culture medium was replaced with a starvation medium containing 0.05% FBS after 24 hours. The cells were starved for 20 hours.
2) The starvation medium was removed, the cells were treated with the prepared compound concentration gradient for 60 minutes, VIP-5021 (10 uM) was set as the positive control, and the DMSO group was set as the negative control.
3) After the compound treatment, the compound solutions were aspirated, washed with PBS two times, 100 ul of cell lysate was added to each well, the cells were gently scraped with a cell scraper, and the cells were transferred to a centrifuge tube and lysed on ice for 60 minutes.
4) After the lysis, centrifugation was performed at 4° C. and 14000 rpm for 15 minutes, the lysate supernatant was collected, protein quantification was performed using the BCA method, the protein concentration was adjusted, the loading buffer was added according to proportion, and treatment was performed at 100° C. for 10 minutes to denature the protein.
5) An electrophoresis equipment was assembled, 20 ug of total protein was loaded per sample, the voltage was fixed at 125 V, and electrophoresis was performed for 90 minutes. After the electrophoresis was completed, the membrane transfer system was assembled with a fixed current of 300 mA and the membrane was transferred for 120 minutes. After the membrane transfer was completed, the PVDF membrane was removed and washed with PBS two times. A blocking solution was added to block at room temperature for 60 minutes. The blocking solution was removed, a solution containing the primary antibody (Phospho-Myosin Light Chain2 (Ser19)) (antibody dilution ratio 1:1000) was added, GAPDH was selected as internal control, and incubation was performed overnight at 4° C.
6) Washing was performed with PBST three times, HRP-antibody containing the corresponding species (secondary antibody dilution ratio 1:2000) was added, incubation was performed at room temperature for 60 minutes, and washing was performed with PBST three times. HRP chemiluminescence substrate was prepared, and dropwisely added on the PVDF membrane based on 0.1 mL per square centimeter to react for 30 seconds, and the chemiluminescence signal was collected with a gel imager (ChemiDoc XRS+(BIO-RAD)).
7) Each band was quantitatively analyzed using image J software, and the phosphorylated protein level of Phospho-Myosin Light Chain2 (Ser19) in each sample was corrected using GAPDH expression as internal reference.
1) Taking the MLC2 (Ser19) protein phosphorylation level of the highest concentration compound sample as 100% inhibition rate, and taking the MLC2 (Ser19) protein phosphorylation level of the negative control group (DMSO group) as 0% inhibition rate, the percentage inhibition rate corresponding to each concentration of the test compounds was calculated.
2) In the GraphPad Prism software, a nonlinear regression analysis was performed on the logarithm of the concentrations of the test compounds and the corresponding percentage inhibition rates to obtain the half-inhibitory concentrations (IC50) of the cell levels of the test compounds.
The cell activities (IC50) of the compounds detected by this method are as follows: […]
For orientation: A western blot detects proteins with antibodies after separation by electrophoresis.

For a further assay, the target named is ROCK2 (Homo sapiens, UniProt O75116). The assay is described as follows: ROCK2 kinase inhibitor activity test (HTRF). The note with it: ROCK2 1 nM, substrate 500 nM, ATP 6 uM, 1.5 hours at room temperature, read-out: ROCK2 kinase inhibitor activities (IC50). It is filed as biochemical. On the procedure:
ROCK2 Kinase Inhibitor Activity Test
1) 4× ROCK2 reaction solution, 4×ATP reaction solution, 4× substrate solution, and 4× compound solution were prepared according to experimental requirements.
2) 2.5 μL of 4× kinase solution and 2.5 μL of diluted 4× test compound solutions with different concentration gradients were added to a 384-well plate. 2 replicate wells were provided for each concentration, and an enzyme solution blank control group and a negative control group (DMSO group) were provided at the same time. Centrifugation was performed at 1000 rpm for 1 minute, and the enzyme and the compounds were mixed. 2.5 μL of 4× substrate solution was added to the 384-well plate, centrifugation was performed at 1000 rpm for 1 minute, 2.5 μL of 4× ATP solution was added to the 384-well plate, centrifugation was performed at 1000 rpm for 1 minute to start the enzyme reaction, and incubation was performed at room temperature for 1.5 hours.
The final concentration of each component of the ROCK2 reaction was: ROCK2: 1 nM, substrate: 500 nM, ATP: 6 uM, and the final concentration range of the test compounds was: 100 nM to 5 pM.
3) 4× Streptavidin-XL-665 detection solution was prepared according to experimental requirements.
4) After the enzyme reaction was completed, 5 ul of 4× Streptavidin-XL-665 detection solution was added to each well of the 384-well plate, and centrifugation was performed at 1000 rpm for 1 minute. 5 μL of 4×STK Antibody-cryptate detection antibody solution was added to each well of the 384-well plate, centrifugation was performed at 1000 rpm for 1 minute, and incubation was performed for 1 hour at room temperature.
5) After antibody incubation was completed, the signal value of each well was measured by the HTRF program on an Envision plate reader.
1) Taking the enzyme solution blank control group as 100% inhibition rate and the negative control group (DMSO group) as 0% inhibition rate, the percentage inhibition rate corresponding to each concentration of the test compound was calculated.
2) In the GraphPad Prism software, a nonlinear regression analysis was performed on the logarithm of the concentrations of the test compounds and the corresponding percentage inhibition rates to obtain the half-inhibitory concentrations (IC50) of the test compounds.
The ROCK2 kinase inhibitor activities (IC50) of the compounds detected by this method are as follows: […]

The values below come from patent publication US20220332726A1, “NITROXIDE DERIVATIVE OF ROCK KINASE INHIBITOR” (VIVAVISION (SHANGHAI) LTD, priority 2020, published 2022).

Chain of ROCK2 (O75116 whole entry): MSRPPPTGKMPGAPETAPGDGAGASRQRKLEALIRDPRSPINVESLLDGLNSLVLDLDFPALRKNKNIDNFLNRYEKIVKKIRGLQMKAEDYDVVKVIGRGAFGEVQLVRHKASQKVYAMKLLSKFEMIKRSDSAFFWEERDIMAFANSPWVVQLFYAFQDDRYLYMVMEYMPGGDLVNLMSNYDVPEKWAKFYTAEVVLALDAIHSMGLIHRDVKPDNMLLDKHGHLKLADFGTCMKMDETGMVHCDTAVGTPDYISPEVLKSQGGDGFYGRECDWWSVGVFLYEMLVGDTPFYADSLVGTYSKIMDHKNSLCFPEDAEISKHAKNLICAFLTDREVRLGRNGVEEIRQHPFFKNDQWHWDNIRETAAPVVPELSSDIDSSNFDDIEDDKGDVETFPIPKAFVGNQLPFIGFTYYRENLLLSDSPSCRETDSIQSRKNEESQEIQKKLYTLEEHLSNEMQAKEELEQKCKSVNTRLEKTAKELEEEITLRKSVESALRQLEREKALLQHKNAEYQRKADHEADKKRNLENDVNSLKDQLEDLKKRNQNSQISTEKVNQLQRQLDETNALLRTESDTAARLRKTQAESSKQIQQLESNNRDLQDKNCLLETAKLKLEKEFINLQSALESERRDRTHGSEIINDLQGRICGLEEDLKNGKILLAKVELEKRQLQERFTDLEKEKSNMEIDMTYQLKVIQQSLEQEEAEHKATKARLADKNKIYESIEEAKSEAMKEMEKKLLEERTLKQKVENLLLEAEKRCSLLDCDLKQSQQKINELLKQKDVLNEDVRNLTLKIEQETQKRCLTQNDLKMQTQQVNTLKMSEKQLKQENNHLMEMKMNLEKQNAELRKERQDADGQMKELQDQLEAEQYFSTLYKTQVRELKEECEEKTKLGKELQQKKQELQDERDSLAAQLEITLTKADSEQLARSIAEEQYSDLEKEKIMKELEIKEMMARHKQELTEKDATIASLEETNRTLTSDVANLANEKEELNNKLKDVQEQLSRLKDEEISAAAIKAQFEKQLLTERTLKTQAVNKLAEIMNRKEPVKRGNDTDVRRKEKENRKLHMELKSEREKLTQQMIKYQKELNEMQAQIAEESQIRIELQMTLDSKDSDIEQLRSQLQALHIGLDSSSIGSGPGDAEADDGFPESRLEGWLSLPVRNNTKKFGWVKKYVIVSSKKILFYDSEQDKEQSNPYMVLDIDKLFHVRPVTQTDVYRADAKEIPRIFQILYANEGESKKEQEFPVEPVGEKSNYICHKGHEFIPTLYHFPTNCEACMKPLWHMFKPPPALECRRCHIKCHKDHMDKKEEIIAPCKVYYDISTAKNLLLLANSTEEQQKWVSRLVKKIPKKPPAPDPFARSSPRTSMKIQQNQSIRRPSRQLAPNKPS

As to `NC[C@@H](C(=O)Nc1cc2ccncc2s1)c1ccc(COC(=O)CCCCO[N+](=O)[O-])cc1` [Example 9, (S)-4-(3-amino-1-oxo-1-(thieno[2,3-c]pyridin-2-ylamino)prop-2-yl)benzyl 5-(nitrooxy)valerate], the IC50 – broadly, the point on the concentration scale where inhibition reaches its midpoint – in assay [1] worked out at 30.3 nM; on ROCK2 it was 1.02 nM.
The matching figures for `NC[C@@H](C(=O)Nc1cc2ccncc2s1)c1ccc(CO[N+](=O)[O-])cc1` [Example 1, (S)-4-(3-amino-1-oxo-1-(thieno[2,3-c]pyridin-2-ylamino)prop-2-yl)benzyl nitrate]: 53 nM and 0.5 nM.
For `NCC(C(=O)Nc1cc2ccncc2s1)c1ccc(CCCO[N+](=O)[O-])cc1` (stereo not shown) [Example 8, 3-(4-(3-amino-1-oxo-1-thieno[2,3-c]pyridin-2-ylamino)prop-2-yl)phenyl)propyl nitrate], the IC50 in assay [1] worked out at 35.8 nM; on ROCK2 it was 5.9 nM.
As to `NC[C@@H](C(=O)Nc1cc2ccncc2s1)c1ccc(CCO[N+](=O)[O-])cc1` [Example 11, (S)-4-(3-amino-1-oxo-1-(thieno[2,3-c]pyridin-2-ylamino)propan-2-yl)phenethyl nitrate], the half-inhibitory concentration (IC50) is 21.4 nM in assay [1] and 6.01 nM on ROCK2.
With `NC[C@@H](C(=O)Nc1cc2ccncc2s1)c1ccc(COC(=O)OCCCCO[N+](=O)[O-])cc1` [Example 13, (S)-4-(3-amino-1-oxo-1-(thieno[2,3-c]pyridin-2-ylamino)prop-2-yl)benzyl(4-(nitrooxy)butyl)carbonate], the half-inhibitory concentration (IC50) worked out at 39.5 nM in assay [1] and 1.51 nM on ROCK2.
In the case of `NC[C@@H](C(=O)Nc1cc2ccncc2s1)c1ccc(COC(=O)NCCO[N+](=O)[O-])cc1` [Example 24, (S)-4-(3-amino-1-oxy-1-(thieno[2,3-c]pyridin-2-ylamino)prop-2-yl)benzyl(2-(nitrooxy)ethyl)carbamate], at ROCK2, the half-maximal inhibitory concentration (IC50) was 0.45 nM.
Regarding `NC[C@@H](C(=O)Nc1cc2ccncc2s1)c1ccc(COC(=O)[C@H]2CC[C@H](O[N+](=O)[O-])CC2)cc1` [Example 20, 4-((S)-3-amino-1-oxy-1-(thieno[2,3-c]pyridin-2-ylamino)prop-2-yl)benzyl(1r,4S)-4-(nitrooxy)cyclohexane-1-carboxylate], the IC50 at ROCK2 was determined as 1.43 nM.
For `NC[C@@H](C(=O)Nc1cc2cnccc2s1)c1ccc(COC(=O)CC[C@H](CO[N+](=O)[O-])O[N+](=O)[O-])cc1` [Example 33, 4-((S)-3-amino-1-oxy-1-(thieno[2,3-c]pyridin-2-ylamino)prop-2-yl)benzyl(R)-4,5-bis(nitrooxy)valeric acid], the IC50 on ROCK2 came out at 1.18 nM.
Take `NCC(C(=O)Nc1cc2ccncc2s1)c1ccc(CCCCO[N+](=O)[O-])cc1` (stereo not shown) [Example 10, 4-(4-(3-amino-1-oxo-1-(thieno[2,3-c]pyridin-2-ylamino)prop-2-yl)phenyl)butyl nitrate]: the half-maximal inhibitory concentration (IC50) on ROCK2 came out at 19.3 nM.
`NCC(C(=O)Nc1cc2ccncc2s1)c1ccc(OCC(CO[N+](=O)[O-])O[N+](=O)[O-])cc1` (stereo not shown) [Example 7, 3-(4-(3-amino-1-oxo-1-(thieno[2,3-c]pyridin-2-ylamino)prop-2-yl)phenoxy)propane-1,2-dinitrate]: the concentration for half-maximal inhibition (IC50) in assay [1] was 8.8 nM; at ROCK2 it was 2.19 nM.
On to `NC[C@@H](C(=O)Nc1ccc2cnsc2c1)c1ccc(CO[N+](=O)[O-])cc1` [Example 4, (S)-4-(3-amino-1-(benzo[d]isothiazol-6-ylamino)-1-oxoprop-2-yl)benzyl nitrate], for which the 50% inhibitory concentration (IC50) at ROCK2 came to 1.78 nM.
The same measure, in the same setting: the value for `NC[C@@H](C(=O)Nc1cc2ccncc2s1)c1ccc(COC(=O)[C@H]2CC[C@@H](O[N+](=O)[O-])CC2)cc1` [Example 19, 4-((S)-3-amino-1-oxy-1-(thieno[2,3-c]pyridin-2-ylamino)prop-2-yl)benzyl(1s,4R)-4-(nitrooxy)cyclohexane-1-carboxylate] was 1.33 nM.
Still for that read-out and setting: the value for `NC[C@@H](C(=O)Nc1cc2ccncc2s1)c1ccc(COC(=O)C2CCC(CO[N+](=O)[O-])CC2)cc1` (stereo partly drawn) [Example 38, (1r,4S)-4-((S)-3-amino-1-oxy-1-(thieno[2,3-c]pyridin-2-ylamino)propan-2-yl)benzyl 4-((nitrooxy)methyl)cyclohexanecarboxylic acid] was 19.7 nM.
As for `NC[C@@H](C(=O)Nc1cc2ccncc2s1)c1ccc(COC(=O)[C@H]2C[C@H](CO[N+](=O)[O-])C2)cc1` [Example 35, (1R,3S)-4-((S)-3-amino-1-oxy-1-(thieno[2,3-c]pyridin-2-ylamino)propan-2-yl)benzyl 3-((nitrooxy)methyl)cyclobutane-1-carboxylate], on ROCK2, the IC50 turned out to be 6.5 nM.
For `NCC(C(=O)Nc1cc2ccncc2s1)c1ccc(CCO[N+](=O)[O-])cc1` (stereo not shown) [Example 3], the IC50 at ROCK2 came to 10.8 nM.
Consider `Cc1cc(CCO[N+](=O)[O-])ccc1C(=O)OCc1ccc([C@@H](CN)C(=O)Nc2cc3ccncc3s2)cc1` [Example 17], for which the half-inhibitory concentration (IC50) on ROCK2 came out at 5.44 nM.
